Measurements reported in PubChem BioAssay (NCI).
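Five compound concentrations were applied to cells in 96-well plates for 48 hours; endpoints were derived by simple linear interpolation of the resulting dose-response curve. TGI is the concentration that stops growth completely.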

How the values were obtained:
Experiment in all cases: inhibition of tumour cell growth, NCI panel, 48 h
OVCAR-8 ovarian = system: OVCAR-8 ovarian
CAKI-1 renal = system: CAKI-1 renal
LOX IMVI melanoma = system: LOX IMVI melanoma
CCRF-CEM leukemia = system: CCRF-CEM leukemia
NCI-H226 lung = system: NCI-H226 lung
HOP-92 NSCLC = system: HOP-92 NSCLC
DU-145 prostate = system: DU-145 prostate
OVCAR-4 ovarian = system: OVCAR-4 ovarian
NCI-H23 lung = system: NCI-H23 lung
HCT-116 colon = system: HCT-116 colon

For `COc1cc2c(cc1OCCCC(=O)Nc1cc(C(=O)Nc3cc(C(=O)Nc4cc(C(=O)NCCCN(C)C)n(C)n4)n(C)n3)n(C)n1)N=CC1CCCN1C2=O` (stereo not given), the TGI (OVCAR-8 ovarian) was over 100 µM, the TGI (CAKI-1 renal) was 61.5 µM and the TGI (LOX IMVI melanoma) was over 100 µM. It also gave a TGI (CCRF-CEM leukemia) of over 100 µM, a TGI (NCI-H226 lung) of 48.1 µM and a TGI (HOP-92 NSCLC) of over 100 µM. For the same compound, the TGI (DU-145 prostate) was over 100 µM, the TGI (OVCAR-4 ovarian) was 35.7 µM and the TGI (NCI-H23 lung) was 66.5 µM. It also gave a TGI (HCT-116 colon) of over 100 µM.

Compound `C(=C\c1cccc(/C=C/c2ccccn2)n1)/c1ccccn1` has a TGI (OVCAR-8 ovarian) of over 100 µM, a TGI (CAKI-1 renal) of over 100 µM and a TGI (LOX IMVI melanoma) of over 100 µM. For the same compound, the TGI (CCRF-CEM leukemia) was over 100 µM, the TGI (NCI-H226 lung) was over 100 µM and the TGI (HOP-92 NSCLC) was over 100 µM. The TGI (DU-145 prostate) was over 100 µM, the TGI (OVCAR-4 ovarian) was over 100 µM and the TGI (NCI-H23 lung) was over 100 µM. The TGI (HCT-116 colon) was over 100 µM.

`CCOP(=O)(OCC)C(Nc1cccc(F)c1)c1ccccc1` (stereo not given) showed a TGI (OVCAR-8 ovarian) of over 100 µM, a TGI (CAKI-1 renal) of over 100 µM and a TGI (LOX IMVI melanoma) of over 100 µM. The TGI (CCRF-CEM leukemia) was over 100 µM, the TGI (NCI-H226 lung) was over 100 µM and the TGI (HOP-92 NSCLC) was over 100 µM. It also gave a TGI (DU-145 prostate) of over 100 µM, a TGI (OVCAR-4 ovarian) of over 100 µM and a TGI (NCI-H23 lung) of over 100 µM. It also gave a TGI (HCT-116 colon) of over 100 µM.

Work on `CCOC(=O)C1(C(=O)OCC)[C@H](c2ccccc2)C2=NO[C@@H]3CCC[C@H]1[C@H]23` yielded a TGI (OVCAR-8 ovarian) of over 100 µM, a TGI (CAKI-1 renal) of over 100 µM and a TGI (LOX IMVI melanoma) of over 100 µM. For the same compound, the TGI (CCRF-CEM leukemia) was over 100 µM, the TGI (NCI-H226 lung) was over 100 µM and the TGI (HOP-92 NSCLC) was over 100 µM. For the same compound, the TGI (DU-145 prostate) was over 100 µM, the TGI (OVCAR-4 ovarian) was over 100 µM and the TGI (NCI-H23 lung) was over 100 µM. For the same compound, the TGI (HCT-116 colon) was over 100 µM.

Work on `Nc1nc(-c2ccccc2N=NN2CCCC2)nc2ccccc12` yielded a TGI (OVCAR-8 ovarian) of 3.77 µM, a TGI (CAKI-1 renal) of 18.5 µM and a TGI (LOX IMVI melanoma) of 3.77 µM. For the same compound, the TGI (CCRF-CEM leukemia) was 19.1 µM, the TGI (NCI-H226 lung) was 12.2 µM and the TGI (HOP-92 NSCLC) was 21.3 µM. It also gave a TGI (DU-145 prostate) of 16.5 µM, a TGI (OVCAR-4 ovarian) of 19.1 µM and a TGI (NCI-H23 lung) of 8.06 µM. It also gave a TGI (HCT-116 colon) of 2.55 µM.

`CCNc1ccc2c(c1)Cc1ccccc1-2` showed a TGI (OVCAR-8 ovarian) of over 100 µM, a TGI (CAKI-1 renal) of over 100 µM and a TGI (LOX IMVI melanoma) of over 100 µM. The TGI (CCRF-CEM leukemia) was over 100 µM, the TGI (NCI-H226 lung) was over 100 µM and the TGI (HOP-92 NSCLC) was 82.4 µM. For the same compound, the TGI (DU-145 prostate) was over 100 µM, the TGI (OVCAR-4 ovarian) was over 100 µM and the TGI (NCI-H23 lung) was over 100 µM. It also gave a TGI (HCT-116 colon) of over 100 µM.
